Key:
Experiment in all cases: NCI-60 panel test
Assay type in all cases: cell-based
CCRF-CEM = conditions: Homo sapiens, NCI-60 5-dose study
Protocol: (§1) FIG. 7. NCI-60 panel test. The effect of AOH1160 on growth of the NCI-60 panel, which consists of 60 cancer cell lines representing 9 major cancer types, was tested in a 5-dose study. Shown are the Log IC50 values determined for each cell line. […] This study was performed by the National Institute of Cancer.
(§2) As observed in FIG. 7, the effect of AOH1160 on growth of the NCI-60 panel, which consists of 60 cancer cell lines representing 9 major cancer types, was tested in a 5-dose study. Shown are the Log IC50 values determined for each cell line.

DU-145 = conditions: Homo sapiens; DU-145, NCI-60 5-dose study
Protocol: as §1, §2

EKVX = conditions: Homo sapiens, NCI-60 5-dose study
Protocol: as §1, §2

HOP-62 = conditions: Homo sapiens; HOP-62, NCI-60 5-dose study
Protocol: as §1, §2

HOP-92 = conditions: Homo sapiens; HOP-92, NCI-60 5-dose study
Protocol: as §1, §2

IGROV1 = conditions: Homo sapiens, IGROV-1; IGROV1, NCI-60 5-dose study
Protocol: as §1, §2

K-562 = conditions: Homo sapiens, K562; K-562, NCI-60 5-dose study
Protocol: as §1, §2

M14 = conditions: Homo sapiens; M14, NCI-60 5-dose study
Protocol: as §1, §2

MDA-MB-231/ATCC = conditions: Homo sapiens, NCI-60 5-dose study
Protocol: as §1, §2

MDA-MB-468 = conditions: Homo sapiens; MDA-MB-468, NCI-60 5-dose study
Protocol: as §1, §2

NCI-H226 = conditions: Homo sapiens; NCI-H226, NCI-60 5-dose study
Protocol: as §1, §2

NCI-H322M = conditions: Homo sapiens, NCI-60 5-dose study
Protocol: as §1, §2

NCI-H460 = conditions: Homo sapiens; NCI-H460, NCI-60 5-dose study
Protocol: as §1, §2

NCI-H522 = conditions: Homo sapiens; NCI-H522, NCI-60 5-dose study
Protocol: as §1, §2

NCI/ADR-RES = conditions: Homo sapiens, NCI-60 5-dose study
Protocol: as §1, §2

OVCAR-3 = conditions: Homo sapiens; OVCAR-3, NCI-60 5-dose study
Protocol: as §1, §2

OVCAR-5 = conditions: Homo sapiens; OVCAR-5, NCI-60 5-dose study
Protocol: as §1, §2

OVCAR-8 = conditions: Homo sapiens; OVCAR-8, NCI-60 5-dose study
Protocol: as §1, §2

RPMI-8226 = conditions: Homo sapiens; RPMI-8226, NCI-60 5-dose study
Protocol: as §1, §2

RXF 393 = conditions: Homo sapiens; RXF 393, NCI-60 5-dose study
Protocol: as §1, §2

SF-268 = conditions: Homo sapiens
Protocol: as §1, §2

SF-295 = conditions: Homo sapiens; SF-295, NCI-60 5-dose study
Protocol: as §1, §2

SK-MEL-28 = conditions: Homo sapiens; SK-MEL-28, NCI-60 5-dose study
Protocol: as §1, §2

SK-MEL-5 = conditions: Homo sapiens; SK-MEL-5, NCI-60 5-dose study
Protocol: as §1, §2

SK-OV-3 = conditions: Homo sapiens; SK-OV-3, NCI-60 5-dose study
Protocol: as §1, §2

SNB-75 = conditions: Homo sapiens; SNB-75, NCI-60 5-dose study
Protocol: as §1, §2

T-47D = conditions: Homo sapiens, T47D, NCI-60 5-dose study
Protocol: as §1, §2

TK-10 = conditions: Homo sapiens; TK-10, NCI-60 5-dose study
Protocol: as §1, §2

U251 = conditions: Homo sapiens, U-251; U251, NCI-60 5-dose study
Protocol: as §1, §2

MALME-3M = conditions: Homo sapiens, NCI-60 5-dose study
Protocol: as §1, §2

O=C(CNC(=O)c1cccc2ccccc12)Nc1ccccc1Oc1ccc(O)cc1 [PCNA1]
GI50 (CCRF-CEM): 933 nM | GI50 (DU-145): 1150 nM | GI50 (EKVX): 1170 nM | GI50 (HOP-62): 1350 nM | GI50 (HOP-92): 25100 nM | GI50 (IGROV1): 2340 nM | GI50 (K-562): 501 nM | GI50 (M14): 692 nM | GI50 (MDA-MB-231/ATCC): 3160 nM | GI50 (MDA-MB-468): 550 nM | GI50 (NCI-H226): 4790 nM | GI50 (NCI-H322M): 1150 nM | GI50 (NCI-H460): 977 nM | GI50 (NCI-H522): 851 nM | GI50 (NCI/ADR-RES): 1200 nM | GI50 (OVCAR-3): 741 nM | GI50 (OVCAR-5): 6310 nM | GI50 (OVCAR-8): 1320 nM | GI50 (RPMI-8226): 977 nM | GI50 (RXF 393): 501 nM | GI50 (SF-268): 3310 nM | GI50 (SF-295): 617 nM | GI50 (SK-MEL-28): 851 nM | GI50 (SK-MEL-5): 25100 nM | GI50 (SK-OV-3): 1580 nM | GI50 (SNB-75): 589 nM | GI50 (T-47D): 1550 nM | GI50 (TK-10): 17000 nM | GI50 (U251): 1410 nM

COc1cccc(Oc2ccccc2NC(=O)CNC(=O)c2cccc3ccccc23)c1 [PCNA7/ AOH1996]
GI50 (CCRF-CEM): 363 nM | GI50 (DU-145): 708 nM | GI50 (EKVX): 1290 nM | GI50 (HOP-62): 302 nM | GI50 (HOP-92): 204 nM | GI50 (IGROV1): 1050 nM | GI50 (K-562): 129 nM | GI50 (M14): 158 nM | GI50 (MALME-3M): 17000 nM | GI50 (MDA-MB-231/ATCC): 776 nM | GI50 (MDA-MB-468): 331 nM | GI50 (NCI-H226): 2510 nM | GI50 (NCI-H322M): 1290 nM | GI50 (NCI-H460): 295 nM | GI50 (NCI-H522): 178 nM | GI50 (NCI/ADR-RES): 240 nM | GI50 (OVCAR-3): 100 nM | GI50 (OVCAR-5): 1120 nM | GI50 (OVCAR-8): 692 nM | GI50 (RPMI-8226): 955 nM | GI50 (RXF 393): 166 nM | GI50 (SF-268): 550 nM | GI50 (SF-295): 112 nM | GI50 (SK-MEL-28): 4370 nM | GI50 (SK-MEL-5): 219 nM | GI50 (SK-OV-3): 490 nM | GI50 (SNB-75): 129 nM | GI50 (T-47D): 138 nM | GI50 (TK-10): 1580 nM | GI50 (U251): 240 nM

O=C(CNC(=O)c1cccc2ccccc12)Nc1ccccc1Oc1cccc(O)c1 [PCNA2]
GI50 (CCRF-CEM): 4170 nM | GI50 (DU-145): 9550 nM | GI50 (EKVX): 8910 nM | GI50 (HOP-62): 8130 nM | GI50 (HOP-92): 25100 nM | GI50 (IGROV1): 10000 nM | GI50 (K-562): 1050 nM | GI50 (M14): 1550 nM | GI50 (MALME-3M): 5890 nM | GI50 (MDA-MB-231/ATCC): 17800 nM | GI50 (MDA-MB-468): 3550 nM | GI50 (NCI-H226): 25100 nM | GI50 (NCI-H322M): 10700 nM | GI50 (NCI-H460): 5750 nM | GI50 (NCI-H522): 1620 nM | GI50 (NCI/ADR-RES): 7940 nM | GI50 (OVCAR-3): 1510 nM | GI50 (OVCAR-5): 25100 nM | GI50 (OVCAR-8): 11500 nM | GI50 (RPMI-8226): 8130 nM | GI50 (RXF 393): 4170 nM | GI50 (SF-268): 20900 nM | GI50 (SF-295): 2190 nM | GI50 (SK-MEL-28): 1860 nM | GI50 (SK-MEL-5): 25100 nM | GI50 (SK-OV-3): 12900 nM | GI50 (SNB-75): 3310 nM | GI50 (T-47D): 9770 nM | GI50 (TK-10): 25100 nM | GI50 (U251): 8320 nM

O=C(CNC(=O)c1cccc2ccccc12)Nc1ccccc1Oc1ccccc1 [AOH1160]
GI50 (CCRF-CEM): 347 nM | GI50 (DU-145): 324 nM | GI50 (EKVX): 776 nM | GI50 (HOP-62): 355 nM | GI50 (HOP-92): 2240 nM | GI50 (IGROV1): 912 nM | GI50 (K-562): 70.8 nM | GI50 (M14): 275 nM | GI50 (MALME-3M): 10000 nM | GI50 (MDA-MB-231/ATCC): 977 nM | GI50 (MDA-MB-468): 324 nM | GI50 (NCI-H226): 2190 nM | GI50 (NCI-H322M): 631 nM | GI50 (NCI-H460): 331 nM | GI50 (NCI-H522): 151 nM | GI50 (NCI/ADR-RES): 240 nM | GI50 (OVCAR-3): 191 nM | GI50 (OVCAR-5): 525 nM | GI50 (OVCAR-8): 316 nM | GI50 (RPMI-8226): 316 nM | GI50 (RXF 393): 186 nM | GI50 (SF-268): 437 nM | GI50 (SF-295): 251 nM | GI50 (SK-MEL-28): 813 nM | GI50 (SK-MEL-5): 263 nM | GI50 (SK-OV-3): 398 nM | GI50 (SNB-75): 229 nM | GI50 (T-47D): 537 nM | GI50 (TK-10): 617 nM | GI50 (U251): 331 nM

COc1ccc(Oc2ccccc2NC(=O)CNC(=O)c2cccc3ccccc23)cc1 [PCNA6]
GI50 (CCRF-CEM): 912 nM | GI50 (DU-145): 1020 nM | GI50 (EKVX): 1380 nM | GI50 (HOP-62): 724 nM | GI50 (HOP-92): 25100 nM | GI50 (IGROV1): 1580 nM | GI50 (K-562): 145 nM | GI50 (M14): 550 nM | GI50 (MALME-3M): 25100 nM | GI50 (MDA-MB-231/ATCC): 2240 nM | GI50 (MDA-MB-468): 457 nM | GI50 (NCI-H226): 4270 nM | GI50 (NCI-H322M): 1230 nM | GI50 (NCI-H460): 851 nM | GI50 (NCI-H522): 195 nM | GI50 (NCI/ADR-RES): 427 nM | GI50 (OVCAR-3): 389 nM | GI50 (OVCAR-5): 2000 nM | GI50 (OVCAR-8): 1150 nM | GI50 (RPMI-8226): 1120 nM | GI50 (RXF 393): 490 nM | GI50 (SF-268): 2040 nM | GI50 (SF-295): 398 nM | GI50 (SK-MEL-28): 380 nM | GI50 (SK-MEL-5): 25100 nM | GI50 (SK-OV-3): 1020 nM | GI50 (T-47D): 2510 nM | GI50 (TK-10): 2140 nM | GI50 (U251): 1050 nM

Source: patent publication US12054447B2, “PCNA inhibitors” (City of Hope, priority 2015, dated 2024)
